# PubChem BioAssay AID330 (DTP/NCI, 2004)
# Where “and” joins values, the source holds several entries; their conditions need not be identical. Equal values may be shown once. Toxic doses and inconclusive results are not listed.
# System: P388 leukemia ip, CD2F1 mice, survival T/C
# Test: NCI In Vivo Anticancer Drug Screen. Data for tumor model P388 Leukemia (intraperitoneal) in CD2F1 (CDF1) mice
# Details: endpoint: median survival time, higher = longer survival
# Procedure, shortened: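 Mice carrying the transplanted tumor received test compound or vehicle. Survival was recorded in each group, and the value is the treated-group measurement divided by that of the vehicle-treated control group.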
# [1] = dose: 60.0 mg/kg/injection, schedule: Q01DX005 (ip), vehicle: Klucel (hydroxypropylcellulose) (HPC)
# [2] = dose: 100.0 mg/kg/injection, schedule: Q01DX009 (ip), vehicle: saline
# [3] = dose: 200.0 mg/kg/injection, schedule: Q01DX009 (ip), vehicle: saline
# [4] = dose: 1.25 mg/kg/injection, schedule: Q01DX009 (ip), vehicle: saline
# [5] = dose: 2.5 mg/kg/injection, schedule: Q01DX009 (ip), vehicle: saline
# [6] = dose: 5.0 mg/kg/injection, schedule: Q01DX009 (ip), vehicle: saline
# [7] = dose: 50.0 mg/kg/injection, schedule: Q01DX009 (ip), vehicle: saline with Tween-80
# [8] = dose: 100.0 mg/kg/injection, schedule: Q01DX009 (ip), vehicle: saline with Tween-80
# [9] = dose: 200.0 mg/kg/injection, schedule: Q01DX009 (ip), vehicle: saline with Tween-80
# [10] = dose: 50.0 mg/kg/injection, schedule: Q01DX005 (ip), vehicle: Klucel (hydroxypropylcellulose) (HPC)
# [11] = dose: 100.0 mg/kg/injection, schedule: Q01DX005 (ip), vehicle: Klucel (hydroxypropylcellulose) (HPC)
# [12] = dose: 200.0 mg/kg/injection, schedule: Q01DX005 (ip), vehicle: Klucel (hydroxypropylcellulose) (HPC)
# [13] = dose: 60.0 mg/kg/injection, schedule: Q01DX005 (ip), vehicle: saline with Tween-80
# [14] = dose: 120.0 mg/kg/injection, schedule: Q01DX005 (ip), vehicle: saline with Tween-80
# [15] = dose: 240.0 mg/kg/injection, schedule: Q01DX005 (ip), vehicle: saline with Tween-80
# [16] = dose: 25.0 mg/kg/injection, schedule: Q01DX009 (ip), vehicle: water
# [17] = dose: 100.0 mg/kg/injection, schedule: Q01DX005 (ip), vehicle: saline with Tween-80
structure (smiles),measurement,setting,value
O=C(NCCF)Oc1ccc([N+](=O)[O-])cc1,T/C,"dose: 6.25 mg/kg/injection, schedule: Q01DX005 (ip), vehicle: Klucel (hydroxypropylcellulose) (HPC)",106 % of control
same,T/C,"dose: 12.5 mg/kg/injection, schedule: Q01DX005 (ip), vehicle: Klucel (hydroxypropylcellulose) (HPC)",113 % of control and 115 % of control
same,T/C,"dose: 25.0 mg/kg/injection, schedule: Q01DX005 (ip), vehicle: Klucel (hydroxypropylcellulose) (HPC)",121 % of control and 122 % of control
C/C(=C(/O)c1ccc(Cl)cc1)c1nc2cc(Cl)cc([N+](=O)[O-])c2[nH]c1=O,T/C,[1],100 % of control
same,T/C,"dose: 120.0 mg/kg/injection, schedule: Q01DX005 (ip), vehicle: Klucel (hydroxypropylcellulose) (HPC)",107 % of control
same,T/C,"dose: 240.0 mg/kg/injection, schedule: Q01DX005 (ip), vehicle: Klucel (hydroxypropylcellulose) (HPC)",111 % of control
CCOP(=O)(CC1OCCCO1)OCC,T/C,"dose: 50.0 mg/kg/injection, schedule: Q01DX009 (ip), vehicle: saline",98 % of control
same,T/C,[2],100 % of control
same,T/C,[3],102 % of control
CN1CCN(C2=C(Cl)C(=O)c3ccccc3C2=O)CC1,T/C,[4],100 % of control
same,T/C,[5],103 % of control
same,T/C,[6],109 % of control
[CH3][Sn]([CH3])([Cl])[CH2]CC[CH2][Sn]([CH3])([Cl])[Cl],T/C,"dose: 0.78 mg/kg/injection, schedule: Q01DX009 (ip), vehicle: saline",99 % of control
same,T/C,"dose: 1.56 mg/kg/injection, schedule: Q01DX009 (ip), vehicle: saline",89 % of control
same,T/C,"dose: 3.12 mg/kg/injection, schedule: Q01DX009 (ip), vehicle: saline",89 % of control
Fc1ccccc1N=Cc1ccc(C=Nc2ccccc2F)cc1,T/C,"dose: 15.0 mg/kg/injection, schedule: Q01DX005 (ip), vehicle: Klucel (hydroxypropylcellulose) (HPC)",100 % of control
same,T/C,"dose: 30.0 mg/kg/injection, schedule: Q01DX005 (ip), vehicle: Klucel (hydroxypropylcellulose) (HPC)",92 % of control
same,T/C,[1],95 % of control
COc1cc(-c2ccc(NC(=O)Nc3nccs3)c(OC)c2)ccc1NC(=O)Nc1nccs1,T/C,[7],95 % of control
same,T/C,[8],98 % of control
same,T/C,[9],96 % of control
O=C1c2ccccc2N(Cc2cccc(F)c2)C2=NCCCC12 (centres undefined),T/C,[10],113 % of control
same,T/C,[11],116 % of control
same,T/C,[12],100 % of control
CCCCCCCC/C=C/CCCCCCCCCCCCBr,T/C,[2],90 % of control
same,T/C,"dose: 100.0 mg/kg/injection, schedule: Q04DX003 (ip), vehicle: saline",95 % of control
same,T/C,[3],104 % of control
same,T/C,"dose: 200.0 mg/kg/injection, schedule: Q04DX003 (ip), vehicle: saline",95 % of control
same,T/C,"dose: 400.0 mg/kg/injection, schedule: Q01DX009 (ip), vehicle: saline",100 % of control
same,T/C,"dose: 400.0 mg/kg/injection, schedule: Q04DX003 (ip), vehicle: saline",100 % of control
CCC(/C=C/c1ccccc1)=N\NC(=O)c1ccc(Cl)c(Cl)c1,T/C,[13],88 % of control and 89 % of control
same,T/C,[14],88 % of control
same,T/C,[15],92 % of control and 97 % of control
CC1(C)CCC/C(=C\c2ccccc2)C1(O)c1ccccn1 (centres undefined),T/C,[7],97 % of control
same,T/C,[8],98 % of control
same,T/C,[9],100 % of control
ClCCN(CCCN(CCCl)c1ccccc1)c1ccccc1,T/C,"dose: 200.0 mg/kg/injection, schedule: Q01DX001 (ip), vehicle: saline with Tween-80",164 % of control
same,T/C,"dose: 400.0 mg/kg/injection, schedule: Q01DX001 (ip), vehicle: saline with Tween-80",150 % of control and 157 % of control
same,T/C,"dose: 800.0 mg/kg/injection, schedule: Q01DX001 (ip), vehicle: saline with Tween-80",160 % of control
COc1ccc(C2C3=C(CCCC3=O)Oc3cc4c(cc32)OCO4)c(OC)c1 (centres undefined),T/C,[13],99 % of control
same,T/C,[14],90 % of control
same,T/C,[15],90 % of control
O=C(Cc1nc2ccccc2[nH]1)N/N=C1\SCC(=O)N1c1ccc(Cl)cc1,T/C,[10],103 % of control
same,T/C,[11],108 % of control
same,T/C,[12],104 % of control
O=NNc1ccc2ccccc2n1,T/C,"dose: 3.12 mg/kg/injection, schedule: Q01DX009 (ip), vehicle: water",122 % of control
same,T/C,[16],91 % of control and 94 % of control
c1ccc(-c2ccccc2NC2=NCCO2)cc1,T/C,"dose: 12.5 mg/kg/injection, schedule: Q01DX009 (ip), vehicle: saline with Tween-80",104 % of control
same,T/C,"dose: 25.0 mg/kg/injection, schedule: Q01DX009 (ip), vehicle: saline with Tween-80",104 % of control
same,T/C,[7],95 % of control
[Mn+2].[O-]c1cc(Br)ccc1/C=N/Nc1ccccn1.[O-]c1cc(Br)ccc1/C=N/Nc1ccccn1,T/C,[17],87 % of control
same,T/C,"dose: 200.0 mg/kg/injection, schedule: Q01DX005 (ip), vehicle: saline with Tween-80",91 % of control
same,T/C,"dose: 400.0 mg/kg/injection, schedule: Q01DX005 (ip), vehicle: saline with Tween-80",100 % of control
CC(=O)Oc1ccc(OC(C)=O)c2c1CC1OC1C2 (centres undefined),T/C,"dose: 3.13 mg/kg/injection, schedule: Q01DX009 (ip), vehicle: water",100 % of control
same,T/C,"dose: 6.25 mg/kg/injection, schedule: Q01DX009 (ip), vehicle: water",98 % of control
same,T/C,"dose: 12.5 mg/kg/injection, schedule: Q01DX009 (ip), vehicle: water",100 % of control
same,T/C,[16],90 % of control
same,T/C,"dose: 50.0 mg/kg/injection, schedule: Q01DX009 (ip), vehicle: water",100 % of control
same,T/C,"dose: 100.0 mg/kg/injection, schedule: Q01DX009 (ip), vehicle: distilled water + Tween-80",111 % of control
same,T/C,"dose: 200.0 mg/kg/injection, schedule: Q01DX009 (ip), vehicle: distilled water + Tween-80",111 % of control
same,T/C,"dose: 400.0 mg/kg/injection, schedule: Q01DX009 (ip), vehicle: distilled water + Tween-80",100 % of control
COc1cc2c(cc1OC)C13CCN4CC5=CCOC6CC(=O)N2C1C6C5CC43 (centres undefined) (tested in a mixture with another compound),T/C,"dose: 25.0 mg/kg/injection, schedule: Q04DX003 (ip), vehicle: saline with Tween-80",100 % of control
same,T/C,[7],104 % of control
same,T/C,"dose: 50.0 mg/kg/injection, schedule: Q04DX003 (ip), vehicle: saline with Tween-80",104 % of control
same,T/C,[8],106 % of control
same,T/C,"dose: 100.0 mg/kg/injection, schedule: Q04DX003 (ip), vehicle: saline with Tween-80",104 % of control
COc1ccc2nc3ccccc3c(NCCNCCO)c2c1,T/C,[4],105 % of control
same,T/C,[5],105 % of control
same,T/C,[6],120 % of control
CCCC1(c2ccccc2)CCCC(C#N)C1=O (centres undefined),T/C,"dose: 100.0 mg/kg/injection, schedule: Q04DX002 (ip), vehicle: Klucel (hydroxypropylcellulose) (HPC)",104 % of control
same,T/C,"dose: 200.0 mg/kg/injection, schedule: Q04DX002 (ip), vehicle: Klucel (hydroxypropylcellulose) (HPC)",107 % of control
same,T/C,"dose: 400.0 mg/kg/injection, schedule: Q04DX002 (ip), vehicle: Klucel (hydroxypropylcellulose) (HPC)",106 % of control
Cc1ccc2nc(N/N=C/c3cccc(C)n3)cc(C)c2c1,T/C,"dose: 12.5 mg/kg/injection, schedule: Q01DX005 (ip), vehicle: saline with Tween-80",100 % of control
same,T/C,"dose: 25.0 mg/kg/injection, schedule: Q01DX005 (ip), vehicle: saline with Tween-80",90 % of control
same,T/C,"dose: 50.0 mg/kg/injection, schedule: Q01DX005 (ip), vehicle: saline with Tween-80",100 % of control and 93 % of control
same,T/C,[17],100 % of control
CN1CC(=O)N=C1N,T/C,"dose: 100.0 mg/kg/injection, schedule: Q04DX003 (ip), vehicle: Klucel (hydroxypropylcellulose) (HPC)",100 % of control
same,T/C,"dose: 200.0 mg/kg/injection, schedule: Q04DX003 (ip), vehicle: Klucel (hydroxypropylcellulose) (HPC)",100 % of control
same,T/C,"dose: 400.0 mg/kg/injection, schedule: Q04DX003 (ip), vehicle: Klucel (hydroxypropylcellulose) (HPC)",105 % of control
CCN1CCc2cccc3c2C1c1ccccc1CC3 (centres undefined),T/C,"dose: 50.0 mg/kg/injection, schedule: Q01DX001 (ip), vehicle: saline with Tween-80",100 % of control
same,T/C,"dose: 100.0 mg/kg/injection, schedule: Q01DX001 (ip), vehicle: saline with Tween-80",101 % of control
O=c1[nH]cc(F)c(=O)[nH]1.[Tl],T/C,"dose: 0.78 mg/kg/injection, schedule: Q01DX009 (ip), vehicle: Klucel (hydroxypropylcellulose) (HPC)",99 % of control
same,T/C,"dose: 1.56 mg/kg/injection, schedule: Q01DX009 (ip), vehicle: Klucel (hydroxypropylcellulose) (HPC)",103 % of control
same,T/C,"dose: 3.13 mg/kg/injection, schedule: Q01DX009 (ip), vehicle: Klucel (hydroxypropylcellulose) (HPC)",115 % of control
